Reference: paper PMC6757420, “Identifying the active components of Baihe–Zhimu decoction that ameliorate depressive disease by an effective integrated strategy: a systemic pharmacokinetics study combined with classical depression model tests” (Chinese Medicine, 2019)
Values joined by “and” are separate entries in the source; they are usually repeats but may differ in a detail not shown here. Identical values can stand only once. Counter-ions that a name gives are not always drawn. Like-named read-outs stand apart in the source and are kept apart here.

Legend:
serotonin (5-HT) = assay: content of serotonin (5-HT) by ELISA kit; assay type: in vivo, ICR mice; conditions: Table 5; 10 mg/kg oral; control 636.2 ± 80.1
Method: (§1) The antidepressant activity of the drugs was evaluated by classic behavioral measurements, such as the forced swimming test (FST) and tail suspension test (TST). All the ICR mice were randomly divided into several groups (n = 8) as follows: a control group with stimulation and different test groups subjected to FST and TST after the oral administration of different drugs for 8 days, including fluoxetine (10 mg/kg), BZD (3 g/kg), ZD (3 g/kg), Baihe decoction (BD, 3 g/kg), PZ (21.2 mg/kg), XZ (21.2 mg/kg), SZ (21.2 mg/kg), timosaponin BII (10 mg/kg) and timosaponin BIII (10 mg/kg).
(§2) The contents of dopamine (DA) and serotonin (5-HT) in the plasma were determined using ELISA Kits (Shanghai Jianglai Biotech Co., Ltd., Shanghai, China) according to the manufacturer’s instructions.

ICR mice [1] = assay: forced swimming test (FST); assay type: in vivo
Method: as §1
(§3) The FST was performed according to a previously described method with minor modifications. Briefly, each mouse was individually placed in an open water-filled cylinder (H: 50 cm; Ø: 20 cm; water depth: 35 cm; temperature: 23–25 °C) and allowed to swim for a period of 6 min. The total time of immobility was recorded during the last 4 min of the testing duration. Immobility is defined as the mice floating in the water without movement. The TST was conducted as described in the literature. Briefly, the mice were suspended 20 cm above the floor for 6 min. The time of immobility was recorded after the first 2 min. Mice in a completely motionless state were considered immobile.

ICR mice [2] = assay: tail suspension test (TST); assay type: in vivo
Method: as §1, §3

dopamine (DA) = assay: content of dopamine (DA) by ELISA kit; assay type: in vivo, ICR mice; conditions: Table 5; 10 mg/kg oral; control 171.6 ± 54.5
Method: as §1, §2

[3] = pharmacokinetic study of five major components after oral administration of BZD (HPLC-QQQ MS); assay type: in vivo, Sprague–Dawley (SD) rats; conditions: for ER (liver extraction ratio): from portal vein plasma and systemic plasma
Method: The HPLC-QQQ MS method was developed according to a previous study in our group. Briefly, five compounds were simultaneously determined in plasma, liver and brain samples using a 1260 Series liquid chromatography system (Agilent Technologies, Palo Alto, CA, USA) coupled to a 6460 triple quadrupole mass spectrometer with an electrospray ionization source (Agilent Technologies, Palo Alto, CA, USA). Chromatographic separation was performed on an ACE Super C18 column (100 mm × 2.1 mm, 3.0 µm, Advanced Chromatography Technologies Ltd. Aberdeen, Scotland) at a temperature of 40 °C. The mobile phase consisted of water containing 0.1% formic acid (A) and acetonitrile containing 0.1% formic acid (B). The gradient program was performed as follows: 0–3 min, 92% A; 3.5–4.0 min, 88–60% A; 5.5–6 min, 60–55% A; 6.6–7 min, 55–5% A; 11–11.01 min, 5–92% A; 11.01–13.5 min, 92% A. The flow rate was set to 0.35 mL/min in the time range of 0–6.6 min and kept at 0.45 mL/min between 7 and 13.5 min. Five components were monitored in negative multiple reaction monitoring (MRM) mode. The parameters of the mass spectrometer were as follows: capillary voltage, 3500 V; nebulizer, 45 psi; gas temperature, 350 °C; gas flow rate, 12 L/min; sheath gas temperature, 400 °C; sheath gas flow rate, 8 L/min. MassHunter Workstation software (Agilent Technologies, Palo Alto, CA, USA) was used for system operation and data analysis.
All Sprague–Dawley (SD) rats and ICR mice were purchased from Shanghai SLAC Laboratory Animal Co., Ltd. and kept in the breeding room at 22 ± 2 °C and 50 ± 10% humidity in Shanghai Institute of Materia Medica (SIMM). The experimental protocols were approved by the Institutional Animal Care and Use Committee in SIMM. After 1 week of acclimation, all the SD rats were orally administered BZD (15 g/kg). The biological samples were collected from the rats after fasting for 12 h. After anaesthetization, the rats were dissected at 5 min, 15 min, 30 min, 1 h, 2 h, 4 h, 7 h, 10 h, 20 h and 40 h (n = 5 for each time-point). The hepatic portal vein plasma (2 mL) and the systemic plasma (6–8 mL) were subsequently harvested, and finally the liver and brain tissue samples were collected. The plasma sample were centrifuged at 9500×g for 5 min, and the tissue samples were washed with saline solution. All samples were stored at − 80 °C until analysis. The samples were prepared according to the method described in the previous study by our group.
A noncompartmental analysis was carried out using WinNonlin software (Pharsight 6.2, NC, USA) to calculate the PK parameters. The significance of the results in behavior assessment was analyzed by unpaired Student’s t-tests. A P value less than 0.05 was considered significant. The liver extraction ratio (ER) indicated the fraction of hepatic clearance and first-pass effect, and the calculation formula was as reported in a previous study by our group.

depressive rats = conditions: cited from earlier work
[4] = Table 4, oral administration for 8 days, n = 8, 10 mg/kg, control 118.1 ± 24.3
[5] = Table 4, oral administration for 8 days, n = 8, 10 mg/kg, control 102.0 ± 16.9
[6] = Sprague-Dawley, rat, in vivo, po, 15 g/kg
[7] = Sprague-Dawley, rat, hepatic portal vein plasma, po, 15 g/kg, portal vein plasma, rats, oral BZD 15 g/kg, n = 5
[8] = Sprague-Dawley, rat, hepatic portal vein plasma, po, 15 g/kg, portal vein plasma, rats, oral BZD 15 g/kg, n = 5, read-out: AUC0–t
[9] = Sprague-Dawley, rat, hepatic portal vein plasma, po, 15 g/kg, portal vein plasma, rats, oral BZD 15 g/kg, n = 5, read-out: Cmax
[10] = Sprague-Dawley, rat, hepatic portal vein plasma, po, 15 g/kg, portal vein plasma, rats, oral BZD 15 g/kg, n = 5, read-out: Tmax
[11] = Sprague-Dawley, rat, liver, po, 15 g/kg, liver, rats, oral BZD 15 g/kg, n = 5, read-out: Cmax
[12] = Sprague-Dawley, rat, liver, po, 15 g/kg, liver, rats, oral BZD 15 g/kg, n = 5, read-out: Tmax
[13] = Sprague-Dawley, rat, liver, po, 15 g/kg, rats, oral BZD 15 g/kg, n = 5
[14] = Sprague-Dawley, rat, systemic plasma, po, 15 g/kg, systemic plasma, rats, oral BZD 15 g/kg, n = 5, read-out: AUC0–t
[15] = Sprague-Dawley, rat, systemic plasma, po, 15 g/kg, systemic plasma, rats, oral BZD 15 g/kg, n = 5, read-out: Cmax
[16] = Sprague-Dawley, rat, systemic plasma, po, 15 g/kg, systemic plasma, rats, oral BZD 15 g/kg, n = 5, read-out: Tmax
[17] = Sprague-Dawley, rat, systemic plasma, po, 15 g/kg, rats, oral BZD 15 g/kg, n = 5
[18] = cerebellum, rats, oral BZD 15 g/kg, n = 5
[19] = hippocampus, rats, oral BZD 15 g/kg, n = 5
[20] = liver, rats, oral BZD 15 g/kg, n = 5
[21] = portal vein plasma, rats, oral BZD 15 g/kg, n = 5
[22] = systemic plasma, rats, oral BZD 15 g/kg, n = 5

SMILES	Content (ng/g) 5-HT (serotonin (5-HT))	Immobility time (mean ± SD, s) FST (ICR mice [1]; [4])	Immobility time (mean ± SD, s) TST (ICR mice [2]; [5])	Content (ng/g) DA (dopamine (DA))	half-life [3, 7]	AUC(0-t) [3, 8]	Cmax [3, 9]	Tmax [3, 10]	Cmax [3, 11]	Tmax [3, 12]	half-life [3, 13]	AUC(0-t) [3, 14]	Cmax [3, 15]	Tmax [3, 16]	half-life [3, 17]	ER (liver extraction ratio) ([3]; rats, oral BZD 15 g/kg)	further results
CNCCC(Oc1ccc(C(F)(F)F)cc1)c1ccccc1 (stereo not shown) [Fluoxetine, fluoxetine hydrochloride]	731.3 ± 104.6 ng/g	70.2 ± 21.2 s	50.0 ± 22.2 s	215.9 ± 36.5 ng/g													Immobility time (mean ± SD, s) FST (ICR mice [1]; Table 1, oral administration for 8 days, n = 8, fluoxetine 10 mg/kg, BZD, ZD, BD 3 g/kg, control 127.6 ± 40.9): 84.8 ± 15.2 s; Immobility time (mean ± SD, s) FST (ICR mice [1]; Table 2, oral administration for 8 days, n = 8, fluoxetine 10 mg/kg, SZ, PZ, XZ 21.2 mg/kg, control 134.3 ± 22.1): 82.0 ± 21.3 s; Immobility time (mean ± SD, s) TST (ICR mice [2]; Table 1, oral administration for 8 days, n = 8, fluoxetine 10 mg/kg, BZD, ZD, BD 3 g/kg, control 109.1 ± 15.5): 62.0 ± 36.2 s; Immobility time (mean ± SD, s) TST (ICR mice [2]; Table 2, oral administration for 8 days, n = 8, fluoxetine 10 mg/kg, SZ, PZ, XZ 21.2 mg/kg, control 118.6 ± 18.1): 69.5 ± 21.5 s
O=c1c2cc(O)c(O)cc2oc2cc(O)c([C@@H]3O[C@H](CO)[C@@H](O)[C@H](O)[C@H]3O)c(O)c12 [Mangiferin, mangiferin]																	Cmax [3, 6]: 889.36 ± 191.49 ng/mL; Tmax [3, 6]: 1.00 h; AUC(0-t) ([3]; Sprague-Dawley, rat, in vivo, po, 15 g/kg, AUC0–t): 4020 ± 397 ng·h/mL; Cmax ([3]; Sprague-Dawley, rat, in vivo, po, 15 g/kg, Cmax): 131 ng/g and 1760 ng/mL
C[C@H]1CC[C@@]2(OC1)O[C@H]1C[C@H]3[C@@H]4CC[C@@H]5C[C@@H](O[C@@H]6O[C@H](CO)[C@H](O)[C@H](O)[C@H]6O[C@@H]6O[C@H](CO)[C@@H](O)[C@H](O)[C@H]6O)CC[C@]5(C)[C@H]4CC[C@]3(C)[C@H]1[C@@H]2C [Timosaponin AIII, timosaponin AIII]					10.3 h	583 ± 105 ng·h/mL	61.8 ± 25.6 ng/mL	4 h	9360 ± 244 ng/g	20 h	12.2 h	156 ± 21.6 ng·h/mL	16 ± 5.16 ng/mL	4 h	11.2 h	73.20%	ER (liver extraction ratio) ([3]; rats, oral BZD 15 g/kg, listed as timosaponin AIII): 73.21%
C[C@@H](CC[C@@]1(O)O[C@H]2C[C@H]3[C@@H]4CC[C@@H]5C[C@@H](O[C@@H]6O[C@H](CO)[C@H](O)[C@H](O)[C@H]6O[C@@H]6O[C@H](CO)[C@@H](O)[C@H](O)[C@H]6O)CC[C@]5(C)[C@H]4CC[C@]3(C)[C@H]2[C@@H]1C)CO[C@@H]1O[C@H](CO)[C@@H](O)[C@H](O)[C@H]1O [Timosaponin BII, timosaponin BII]	716.5 ± 90.4 ng/g	72.1 ± 19.6 s	48.2 ± 23.1 s	196.9 ± 56.7 ng/g	119 h	1090 ± 184 ng·h/mL	880 ± 160 ng/mL	0.25 h	302 ± 102 ng/g	0.08 h	116 h	976 ± 254 ng·h/mL	277 ± 48.4 ng/mL	0.25 h	35.8 h	10.88%	Cmax ([3]; Sprague-Dawley, rat, cerebellum, po, 15 g/kg, cerebellum, rats, oral BZD 15 g/kg, n = 5, read-out: Cmax): 1170 ± 93.4 ng/g; Tmax ([3]; Sprague-Dawley, rat, cerebellum, po, 15 g/kg, cerebellum, rats, oral BZD 15 g/kg, n = 5, read-out: Tmax): 0.25 h; half-life ([3]; Sprague-Dawley, rat, cerebellum, po, 15 g/kg, rats, oral BZD 15 g/kg, n = 5): 16.2 h; Cmax ([3]; Sprague-Dawley, rat, hippocampus, po, 15 g/kg, hippocampus, rats, oral BZD 15 g/kg, n = 5, read-out: Cmax): 372 ± 154 ng/g; Tmax ([3]; Sprague-Dawley, rat, hippocampus, po, 15 g/kg, hippocampus, rats, oral BZD 15 g/kg, n = 5, read-out: Tmax): 10 h; half-life ([3]; Sprague-Dawley, rat, hippocampus, po, 15 g/kg, rats, oral BZD 15 g/kg, n = 5): 27.4 h; ER (liver extraction ratio) ([3]; rats, oral BZD 15 g/kg, listed as timosaponin BII): 10.88%; antidepressant effect (depressive rats; depressive rats, likely related to the content of 5-HT in the brain): significant antidepressant effect
CC1=C(CC[C@H](C)CO[C@@H]2O[C@H](CO)[C@@H](O)[C@H](O)[C@H]2O)O[C@H]2C[C@H]3[C@@H]4CC[C@@H]5C[C@@H](O[C@@H]6O[C@H](CO)[C@H](O)[C@H](O)[C@H]6O[C@@H]6O[C@H](CO)[C@@H](O)[C@H](O)[C@H]6O)CC[C@]5(C)[C@H]4CC[C@]3(C)[C@@H]12 [Timosaponin BIII, timosaponin BIII]	705.6 ± 47.7 ng/g	68.6 ± 23.2 s	58.4 ± 15.6 s	191.3 ± 69.8 ng/g												11.57%	Cmax [3, 18]: 349.41 ± 34.90 ng/g; T1/2 [3, 18]: 20.65 h; Tmax [3, 18]: 0.25 h; ER (liver extraction ratio) ([3]; rats, oral BZD 15 g/kg, listed as timosaponin BIII): 11.57%; Cmax [3, 19]: 198.23 ± 122.31 ng/g; T1/2 [3, 19]: 1.52 h; Tmax [3, 19]: 1.00 h; Cmax [3, 20]: 158.66 ± 22.12 ng/g; T1/2 [3, 20]: 13.81 h; Tmax [3, 20]: 0.08 h; AUC0–t [3, 21]: 369.20 ± 74.63 ng/mL; Cmax [3, 21]: 226.39 ± 43.92 ng/mL; T1/2 [3, 21]: 16.59 h; Tmax [3, 21]: 0.25 h; AUC0–t [3, 22]: 326.47 ± 54.29 ng/mL; Cmax [3, 22]: 114.14 ± 13.38 ng/mL; T1/2 [3, 22]: 22.82 h; Tmax [3, 22]: 0.25 h; antidepressant effect (depressive rats; rats, by regulating inflammatory cytokines, BNDF signaling and synaptic plasticity): significantly ameliorated depressive effects
